Test results from ChEMBL document CHEMBL1201862, “PubChem BioAssay data set” (2004).
Calls of active or inactive are those of the source.

How the values were obtained:
[1] = molecular target: T1, Oxysterols receptor LXR-beta (Homo sapiens, UniProt P55055); type: functional, cell-based;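 further: agonist activity at LXR measured by a cell-based luminescence readout across a dose range, run as a counterscreen for daf-12 agonists; HEK293 cells with Gal4-LXR fusion and GAL4-driven luciferase reporter; potency for activation of Gal4-LXR reporter so compounds are agonists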
T1 sequence (P55055 whole entry): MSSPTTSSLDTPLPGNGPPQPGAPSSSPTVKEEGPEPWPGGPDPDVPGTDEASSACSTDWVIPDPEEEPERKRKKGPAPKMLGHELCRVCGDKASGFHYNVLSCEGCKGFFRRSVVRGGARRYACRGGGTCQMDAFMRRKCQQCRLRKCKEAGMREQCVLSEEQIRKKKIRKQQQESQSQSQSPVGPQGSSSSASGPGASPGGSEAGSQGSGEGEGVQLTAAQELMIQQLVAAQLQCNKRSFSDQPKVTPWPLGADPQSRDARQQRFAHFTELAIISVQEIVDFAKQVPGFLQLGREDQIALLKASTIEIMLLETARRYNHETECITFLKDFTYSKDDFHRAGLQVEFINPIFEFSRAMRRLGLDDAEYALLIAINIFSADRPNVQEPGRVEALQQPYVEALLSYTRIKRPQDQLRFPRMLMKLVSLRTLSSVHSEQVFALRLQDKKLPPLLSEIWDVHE

[2] = viability loss in THP-1 monocytes – THP-1 cells, cytotoxicity control for Vif-APOBEC3G degradation inhibitor project, dose response (AID 1117359); type: functional; details: THP-1
Protein skinhead-1 = molecular target: T2, Protein skinhead-1 (Caenorhabditis elegans, UniProt P34707); type: functional
T2 sequence (P34707 whole entry): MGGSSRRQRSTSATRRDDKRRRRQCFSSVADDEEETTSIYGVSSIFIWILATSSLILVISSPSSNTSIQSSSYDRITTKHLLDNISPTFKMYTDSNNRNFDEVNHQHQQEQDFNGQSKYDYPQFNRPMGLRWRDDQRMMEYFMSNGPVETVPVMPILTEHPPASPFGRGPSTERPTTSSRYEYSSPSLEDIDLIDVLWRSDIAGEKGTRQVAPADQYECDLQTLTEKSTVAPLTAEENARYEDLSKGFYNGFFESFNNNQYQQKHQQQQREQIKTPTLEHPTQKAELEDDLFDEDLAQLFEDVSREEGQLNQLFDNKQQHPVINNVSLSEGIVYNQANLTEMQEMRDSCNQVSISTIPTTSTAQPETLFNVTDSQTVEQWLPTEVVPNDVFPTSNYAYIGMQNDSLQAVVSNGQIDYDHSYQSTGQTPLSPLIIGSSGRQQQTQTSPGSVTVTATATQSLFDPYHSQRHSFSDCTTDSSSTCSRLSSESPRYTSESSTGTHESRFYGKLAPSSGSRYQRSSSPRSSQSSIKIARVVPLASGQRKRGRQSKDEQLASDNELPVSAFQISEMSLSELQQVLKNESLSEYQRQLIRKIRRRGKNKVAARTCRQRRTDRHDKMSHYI

[3] = viability loss in HeLa cells – cytotoxicity control for MgcRacGAP inhibitor project, dose response (AID 624300); type: functional
[4] = viability loss in HepG2 hepatoma cells – cell-based, ATP luminescence, cherry-pick, activator set 2, cytotoxicity control, dose response (AID 1053143); type: functional
[5] = molecular target: T3, Rac GTPase-activating protein 1 (Homo sapiens, UniProt Q9H0H5); experiment: blockers of MgcRacGAP-driven Rac1 GTP hydrolysis – biochemical, ADP Hunter fluorescence, primary and confirmatory, confirmation (AID 624330); type: functional
T3 sequence (Q9H0H5 whole entry): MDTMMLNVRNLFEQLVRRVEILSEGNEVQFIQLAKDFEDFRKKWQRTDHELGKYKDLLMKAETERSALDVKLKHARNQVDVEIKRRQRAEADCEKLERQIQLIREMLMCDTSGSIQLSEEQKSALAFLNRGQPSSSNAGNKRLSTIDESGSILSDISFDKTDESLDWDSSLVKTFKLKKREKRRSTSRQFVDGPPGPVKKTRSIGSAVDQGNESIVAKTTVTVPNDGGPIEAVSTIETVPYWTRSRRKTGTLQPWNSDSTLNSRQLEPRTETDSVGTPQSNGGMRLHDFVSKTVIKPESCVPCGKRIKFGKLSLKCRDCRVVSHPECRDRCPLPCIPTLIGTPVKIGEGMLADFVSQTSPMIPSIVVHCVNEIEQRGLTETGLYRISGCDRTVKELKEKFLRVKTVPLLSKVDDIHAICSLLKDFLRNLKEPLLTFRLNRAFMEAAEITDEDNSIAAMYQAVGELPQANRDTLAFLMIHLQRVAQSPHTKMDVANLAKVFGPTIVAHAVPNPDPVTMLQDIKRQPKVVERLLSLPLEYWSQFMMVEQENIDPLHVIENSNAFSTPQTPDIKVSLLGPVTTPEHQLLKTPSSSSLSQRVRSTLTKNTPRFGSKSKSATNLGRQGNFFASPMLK

[6] = molecular target: Luciferin 4-monooxygenase (Photinus pyralis, UniProt P08659); experiment: inhibition of purified Photinus pyralis luciferase – biochemical, luminescence, dose response (AID 1891)
Luciferin 4-monooxygenase, sequence (P08659 whole entry): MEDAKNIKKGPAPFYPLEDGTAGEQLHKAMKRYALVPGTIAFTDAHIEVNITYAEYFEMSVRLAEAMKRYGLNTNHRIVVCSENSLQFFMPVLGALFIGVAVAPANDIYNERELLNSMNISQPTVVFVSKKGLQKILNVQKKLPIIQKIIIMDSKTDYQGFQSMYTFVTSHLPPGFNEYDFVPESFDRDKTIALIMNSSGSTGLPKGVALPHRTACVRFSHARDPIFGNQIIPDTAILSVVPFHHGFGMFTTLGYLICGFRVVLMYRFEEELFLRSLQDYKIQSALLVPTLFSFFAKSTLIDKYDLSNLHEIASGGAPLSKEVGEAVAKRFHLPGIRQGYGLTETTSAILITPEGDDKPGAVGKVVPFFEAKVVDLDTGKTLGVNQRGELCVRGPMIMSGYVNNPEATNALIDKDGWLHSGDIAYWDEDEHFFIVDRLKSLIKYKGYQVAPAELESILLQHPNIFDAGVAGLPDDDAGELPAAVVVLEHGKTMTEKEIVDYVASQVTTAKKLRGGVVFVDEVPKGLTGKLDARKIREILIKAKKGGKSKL

Large T antigen = Large T antigen (Simian virus 40, UniProt P03070); type: functional, Betapolyomavirus macacae;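 further: Confirmatory-stage PubChem screen for compounds that inhibit SV40 T antigen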
Large T antigen, sequence (P03070 whole entry): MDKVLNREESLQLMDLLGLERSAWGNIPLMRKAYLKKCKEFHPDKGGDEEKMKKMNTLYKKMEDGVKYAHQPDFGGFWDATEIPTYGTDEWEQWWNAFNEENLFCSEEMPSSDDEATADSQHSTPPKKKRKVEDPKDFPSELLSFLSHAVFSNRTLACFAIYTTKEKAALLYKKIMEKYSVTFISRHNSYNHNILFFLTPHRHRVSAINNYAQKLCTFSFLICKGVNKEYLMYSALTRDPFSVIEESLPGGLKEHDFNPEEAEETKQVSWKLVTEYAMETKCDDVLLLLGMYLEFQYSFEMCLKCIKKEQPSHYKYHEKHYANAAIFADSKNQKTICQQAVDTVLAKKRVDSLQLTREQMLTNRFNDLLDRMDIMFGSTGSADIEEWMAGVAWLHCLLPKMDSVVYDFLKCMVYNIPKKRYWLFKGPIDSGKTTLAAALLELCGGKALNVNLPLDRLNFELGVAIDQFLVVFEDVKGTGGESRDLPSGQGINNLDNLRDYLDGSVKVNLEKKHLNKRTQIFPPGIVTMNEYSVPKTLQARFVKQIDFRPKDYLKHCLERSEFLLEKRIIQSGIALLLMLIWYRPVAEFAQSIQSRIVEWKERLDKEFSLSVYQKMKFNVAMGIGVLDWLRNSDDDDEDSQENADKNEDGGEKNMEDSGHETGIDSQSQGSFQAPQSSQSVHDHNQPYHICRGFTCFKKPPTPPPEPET

[7] = Luminescence Cell-Based Dose Confirmation HTS to Identify Inhibitors of Platelet Dense Granule Release. [Related pubchem assays: 1663 (Primary HTS), 1678 (Summary of Project)]; type: functional
[8] = Dd2 parasite growth inhibition in erythrocytes – SYBR Green, dry powder samples, set 9, dose response (AID 1159568); type: functional, cell-based
[9] = P. falciparum Dd2 growth inhibitors, dose response, SYBR Green, cherry-picked samples (AID 1159567); type: functional, cell-based
[10] = growth inhibition of yeast DHODH-expressing 3D7 parasites – SYBR Green, dry powder samples, dose response (AID 1159570); type: functional, cell-based;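 further: parasite growth measured after 72 hours of compound exposure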
[11] = growth inhibition of PfATP4-mutant resistant parasites – NITD609-resistant line, SYBR Green, dry powder, dose response (AID 1159571); type: functional, cell-based;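 further: parasites synchronized at ring stage by sorbitol before testing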
[12] = Dd2 malaria parasite growth inhibition potency – SYBR Green, dry powder samples, dose response (AID 1159566); type: functional, cell-based;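 further: potency for growth inhibition with lower SYBR green DNA signal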
[13] = NIH-3T3 fibroblast cytotoxicity, dose response, cytotoxicity control, cell-based, fluorescence, Alamar Blue, secondary assay (AID 2327); type: functional;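 further: NIH-3T3 mouse fibroblasts cultured with fluconazole at 8 µg/mL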
[14] = viability of HCT116 lacking mutant beta-catenin – cell-based, human colon tumor, dose response (AID 1045); type: functional;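 further: HCT116 colon tumor cells with beta catenin knocked out; cells exposed to compound for 60 hours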
[15] = viability of PTEN-deleted HCT116 cells – cell-based, HCT116 PTEN knockout, dose response (AID 1047); type: functional;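 further: HCT116 colon tumor cells with PTEN knocked out; cells exposed to compound for 60 hours before readout; potency for loss of cell viability measured by luminescence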
[16] = fluconazole-exposed Candida albicans growth modulators – fluorescence, retest, confirmation (AID 2467); type: functional, cell-based

For `COc1ccc(Oc2cnn(-c3ccccc3)c(=O)c2Br)cc1`, the EC50 [1] was > 67.5 µM (inactive).
For `CN=c1ccccc(-c2ccc3cc4c(cc3n2)OCO4)c1O`, the CC50 [2] was > 40 µM (active).
In the case of `O=C(CSc1nc(-c2ccco2)cc(C(F)(F)F)n1)NC1CCCCCCC1`, the IC50 (Protein skinhead-1) is reported as > 100 µM (inactive).
With `Cc1ccc(NC(=S)NC(=O)C2CCCC2)c(Br)c1` the EC50 [1] was > 67.5 µM (inactive).
With `Oc1ccc(/C=N/Nc2nccnc2Cl)cc1` the CC50 [3] was 46.1 µM (active), the AC50 [4] was 13.7 µM (active) and the IC50 [5] was 16.3 µM (active). For the same compound, the EC50 [6] was 1.12 µM (active), the IC50 (Large T antigen) was 6.32 µM (active) and the EC50 [7] was 0.138 µM (active).
With `O=C(NC1CCC1)c1ccc(C#CC2CC2)cn1` the EC50 [1] was > 67.5 µM (inactive).
In the case of `COc1ccc2c3c([nH]c2c1)[C@H](CO)N(S(C)(=O)=O)CC31CCN(C(=O)Nc2ccccc2)CC1`, the AC50 [8] is reported as 0.145 µM (active).
In the case of `C[C@@H]1CN([C@@H](C)CO)C(=O)c2cccc(NC(=O)C3CC3)c2O[C@@H]1CN(C)C(=O)Nc1ccc(C(F)(F)F)cc1`, the AC50 [9] is reported as 0.642 µM (active), the AC50 [8] is reported as 0.181 µM (active) and the AC50 [10] is reported as 0.312 µM (active). For the same compound, the AC50 [11] was 0.322 µM (active) and the AC50 [12] was 0.275 µM (active).
For `O=C(Nc1cccc(F)c1)N1CCCCN2[C@H](CO)[C@@H](c3ccc(C#Cc4cccnc4)cc3)[C@@H]2C1`, the AC50 [8] was 2.58 µM (active).
For `N#Cc1cccc(-c2ccc3c(c2)[C@H]2[C@H](CCN2S(=O)(=O)c2ccc(F)cc2)[C@@H](CO)N3)c1`, the AC50 [8] was 8.37 µM (active).
For `S=C(Nc1ccccc1)Nc1nc2ccccc2n1CCOc1ccc(Cl)cc1`, the EC50 [13] was 11.1 µM (active), the EC50 [14] was 16 µM (active) and the EC50 [15] was 17.1 µM (active). For the same compound, the EC50 [16] was 2.58 µM (active) and the IC50 (Protein skinhead-1) was > 100 µM (inactive).
